Test results taken from patent publication US12655088B2, “Compound for treating Alzheimer's disease” (XIAMEN UNIVERSITY, priority 2020, dated 2026).

Key:
[1] = biological target: T1, USP25 (His-USP25^a.a.157-706 recombinant protein, deubiquitinase catalytic domain) (Homo sapiens, UniProt Q9UHP3); assay: Screening of USP25 inhibitors with Ubiquitin-Rhodamine 110; details: 10 μM compound, 33.3 nM His-USP25^157-706, 133.3 nM Ubiquitin-Rhodamine 110
T1 sequence (Q9UHP3 157-706): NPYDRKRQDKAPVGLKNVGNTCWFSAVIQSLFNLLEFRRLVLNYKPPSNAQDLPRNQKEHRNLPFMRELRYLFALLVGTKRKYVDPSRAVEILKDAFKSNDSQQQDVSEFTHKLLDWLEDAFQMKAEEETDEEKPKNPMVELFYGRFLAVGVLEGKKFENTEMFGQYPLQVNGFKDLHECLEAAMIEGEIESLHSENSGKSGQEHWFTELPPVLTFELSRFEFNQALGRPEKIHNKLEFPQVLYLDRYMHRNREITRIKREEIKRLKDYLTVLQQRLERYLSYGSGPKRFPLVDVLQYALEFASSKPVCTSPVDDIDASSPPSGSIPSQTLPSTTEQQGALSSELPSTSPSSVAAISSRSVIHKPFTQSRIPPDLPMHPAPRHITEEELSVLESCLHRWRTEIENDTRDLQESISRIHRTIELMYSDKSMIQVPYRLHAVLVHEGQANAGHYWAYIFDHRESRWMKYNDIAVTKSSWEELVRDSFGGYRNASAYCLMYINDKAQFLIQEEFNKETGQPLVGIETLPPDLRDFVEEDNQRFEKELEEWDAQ
Description: And then, the fluorescence intensity of Ubiquitin-Rhodamine 110 was detected by a Tecan Spark multifunctional microplate reader (Tecan, Switzerland).

[2] = test system: Mouse microglial cell line BV2; assay: LPS-induced inflammatory response in microglia cell line BV2 (real-time PCR of Il1b); format: cell-based; details: 10 μM compound
Description: Mouse microglial cell line BV2 was treated with 25 ng/mL lipopolysaccharide (LPS) and 10 μM MZ3, respectively.
(§1) After the cells were treated for 24 hours, RNAs were extracted by TRIzol (Thermo Fisher Scientific), and then reverse-transcribed using Rever Tra Ace qPCR RT Kit (TOYOBO), and real-time fluorescence quantification PCR was performed using FastStart Universal SYBR Green Master (Roche) to detect the transcription levels of inflammation-related gene Il1b.
as §1, with “12” for “24”
Mouse microglial cell line BV2 was treated with 100 ng/mL lipopolysaccharide (LPS) and 10 μM MZ24, MZ25, MZ26, MZ28, MZ29 and MZ31, respectively.

[3] = test system: microglia of C57BL/6 mice; assay: LPS-induced inflammatory response of primary microglia (real-time PCR of Il1b and Il6); format: cell-based; details: 50 ng/mL LPS, 10 μM compound, 6 hours
Description: as §1, with “6” for “24”, “genes Il1b and Il6.” for “gene Il1b.”
as §1, with “6” for “24”

deubiquitinase activity of USP25 (Ubiquitin-Rhodamine 110 fluorescence intensity) [1] | SMILES | further results
can significantly inhibit | OCCN1CCN(Cc2ccc(OC(F)F)c(OCc3cc(F)c(F)cc3F)c2)CC1 [MZ29] | LPS-induced Il1b expression ([2]; BV2, 100 ng/mL LPS, 12 hours): can significantly reduce
can significantly inhibit | Cc1ccc(OCc2ccc(F)c(C(F)(F)F)c2)c(CN2CCN(CCO)CC2)c1 [MZ32] | 
can significantly inhibit | COc1cc(OC)c(CN2CCN(CCO)CC2)c(OCc2cc(C(F)(F)F)cc(C(F)(F)F)c2)c1 [MZ24] | LPS-induced Il1b expression ([2]; BV2, 100 ng/mL LPS, 12 hours): can significantly reduce
can significantly inhibit | Fc1cc(COc2ccc(Br)cc2CNCCc2c[nH]c3ccccc23)ccc1C(F)(F)F [MZ31] | LPS-induced Il1b expression ([2]; BV2, 100 ng/mL LPS, 12 hours): can significantly reduce
can significantly inhibit | OCCNCc1ccccc1OCc1ccc(F)c(C(F)(F)F)c1 [MZ66] | 
can significantly inhibit | COc1cc(OC)c(CNCCO)c(OCc2cc(C(F)(F)F)cc(C(F)(F)F)c2)c1 [MZ69] | 
can significantly inhibit | CCN(CC)CCNCc1ccc(OC(F)F)c(OCc2cc(F)c(F)cc2F)c1 [MZ27] | 
can significantly inhibit | CN1CCN(Cc2ccc(OC(F)F)c(OCc3cc(C(F)(F)F)cc(C(F)(F)F)c3)c2)CC1 [MZ23] | LPS-induced Il1b expression ([2]; BV2, 50 ng/mL LPS, 12 hours): can significantly reduce
can significantly inhibit | COc1cc(OC)c(C=O)c(OCc2cc(C(F)(F)F)cc(C(F)(F)F)c2)c1 [MZ41] | 
can significantly inhibit | OCCNCc1ccccc1NCc1cccc(OC(F)(F)F)c1 [MZ75] | LPS-induced Il1b expression [3]: can significantly reduce
can significantly inhibit | OCCNCc1ccc(OC(F)F)c(OCc2cc(C(F)(F)F)cc(C(F)(F)F)c2)c1 [MZ3] | LPS-induced Il1b expression ([2]; BV2, 25 ng/mL LPS, 24 hours): can significantly reduce
can significantly inhibit | COc1ccc(CNCCO)cc1OCc1cc(C(F)(F)F)cc(C(F)(F)F)c1 [MZ72] | 
can significantly inhibit | CCN(CC)CCNCc1cc(Br)ccc1OCc1cc(F)c(F)cc1F [MZ34] | LPS-induced Il1b expression ([2]; BV2, 50 ng/mL LPS, 12 hours): can significantly reduce
can significantly inhibit | O=Cc1ccc(OC(F)F)c(OCc2cc(C(F)(F)F)cc(C(F)(F)F)c2)c1 [MZ42] | 
can significantly inhibit | OCCNCc1cc(Br)ccc1NCc1ccc(F)c(C(F)(F)F)c1 [MZ76] | LPS-induced Il1b expression [3]: can significantly reduce
can significantly inhibit | CN1CCN(Cc2ccc(OC(F)F)c(OCc3cc(F)c(F)cc3F)c2)CC1 [MZ28] | LPS-induced Il1b expression ([2]; BV2, 100 ng/mL LPS, 12 hours): can significantly reduce
can significantly inhibit | OCCNCc1cc(Br)ccc1OCc1cc(C(F)(F)F)cc(C(F)(F)F)c1 [MZ1] | 
can significantly inhibit | COc1cc(OC)c(CNCCO)c(OCc2ccc(F)c(C(F)(F)F)c2)c1 [MZ68] | 

deubiquitinase activity of USP25 (Ubiquitin-Rhodamine 110 fluorescence intensity) [1] | SMILES | further results
can significantly inhibit | COc1cc(OC)c(CNc2ccc(Br)cn2)c(OCc2cc(C(F)(F)F)cc(C(F)(F)F)c2)c1 [MZ5] | 
can significantly inhibit | Fc1ccc(COc2ccc(Br)cc2CNCCC2CCN(Cc3ccccc3)CC2)cc1C(F)(F)F [MZ37] | 
can significantly inhibit | COc1cc(OC)c(CN2CCN(C)CC2)c(OCc2cc(C(F)(F)F)cc(C(F)(F)F)c2)c1 [MZ4] | 
can significantly inhibit | Fc1cc(F)c(COc2cc(CN3CCc4ccccc4C3)ccc2OC(F)F)cc1F [MZ30] | 
can significantly inhibit | O=Cc1cc(Br)ccc1OCc1cc(F)c(F)cc1F [MZ38] | 
can significantly inhibit | COc1ccc(CNCCO)cc1OCc1ccc(F)c(C(F)(F)F)c1 [MZ71] | 
can significantly inhibit | O=Cc1cc(Br)ccc1OCc1ccc(F)c(C(F)(F)F)c1 [MZ39, 5-bromo-2-(4-fluoro-3-(trifluoromethyl)benzyloxy)benzaldehyde] | 
can significantly inhibit | OCc1cc(Br)ccc1OCc1ccc(F)c(C(F)(F)F)c1 [MZ35] | 
can significantly inhibit | COc1cc(OC)c(C=O)c(OCc2ccc(F)c(C(F)(F)F)c2)c1 [MZ43] | 
can significantly inhibit | OCCNCc1cc(Br)ccc1NCc1cccc(OC(F)(F)F)c1 [MZ77] | LPS-induced Il1b expression [3]: can significantly reduce
can significantly inhibit | OCCNCc1ccccc1NCc1ccc(F)c(C(F)(F)F)c1 [MZ74] | 
can significantly inhibit | CCN1CCN(Cc2cc(Br)ccc2OCc2ccc(F)c(C(F)(F)F)c2)CC1 [MZ33] | 
can significantly inhibit | NCc1cc(Br)ccc1OCc1ccc(F)c(C(F)(F)F)c1 [XMU1, (5-bromo-2-((4-fluoro-3-(trifluoromethyl)benzyl)oxy)phenyl)methanamine] | LPS-induced Il1b expression [3]: can significantly reduce
can significantly inhibit | OCCN1CCN(Cc2ccc(OC(F)F)c(OCc3cc(C(F)(F)F)cc(C(F)(F)F)c3)c2)CC1 [MZ25] | LPS-induced Il1b expression ([2]; BV2, 100 ng/mL LPS, 12 hours): can significantly reduce
can significantly inhibit | Fc1ccc(COc2ccc(Br)cc2CN(CCC2CCN(Cc3ccccc3)CC2)Cc2cc(Br)ccc2OCc2ccc(F)c(C(F)(F)F)c2)cc1C(F)(F)F [MZ36] | 
can significantly inhibit | OCCNCc1ccccc1OCc1cc(C(F)(F)F)cc(C(F)(F)F)c1 [MZ67] | 
can significantly inhibit | CCN(CC)CCNCc1ccc(OC(F)F)c(OCc2cc(C(F)(F)F)cc(C(F)(F)F)c2)c1 [MZ26] | LPS-induced Il1b expression ([2]; BV2, 100 ng/mL LPS, 12 hours): can significantly reduce
can significantly inhibit | O=Cc1ccc(OCc2ccc(F)c(C(F)(F)F)c2)c(OC(F)F)c1 [MZ40] | 
